Earlier results on one molecule are cited in patent publication US8680293B2, “Substituted CC-1065 analogs and their conjugates” (Syntarga B.V., priority 2007, dated 2014).

The conditions of this data set: reason it could not be used in the clinic.

Consider `COc1c(O)c2c(c3cc(C(=O)N4CCc5c4c(O)c(OC)c4[nH]c(C(=O)N6CC7CC78C6=CC(=O)c6[nH]cc(C)c68)cc54)[nH]c13)CCN2C(N)=O` (stereo not shown) [CC-1065], for which the hepatotoxicity entry is reported as “serious delayed hepatotoxicity”.
